# Data: PubChem BioAssay (NCI)
# “And” between values parts separate entries of the source, which are not always exact repeats. Equal entries are not always repeated.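 1) Cells in 96-well plates. 2) Compound, 48 h, 5 concentrations. 3) Linear interpolation between surrounding doses. 4) Unreached endpoint = highest concentration. At the GI50, growth is halved. TGI: concentration producing complete growth inhibition.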
# Tests used:
# Test in all cases: growth of human tumour cells (NCI), 48 h
# U251 CNS = tested on: U251 CNS
# SK-MEL-5 melanoma = tested on: SK-MEL-5 melanoma
# UO-31 renal = tested on: UO-31 renal
# A498 renal = tested on: A498 renal
# SF-539 CNS = tested on: SF-539 CNS
# SR leukemia = tested on: SR leukemia
# HCT-15 colon = tested on: HCT-15 colon
# MOLT-4 leukemia = tested on: MOLT-4 leukemia
# K-562 leukemia = tested on: K-562 leukemia
# SW-620 colon = tested on: SW-620 colon
Structure (SMILES),TGI (U251 CNS),TGI (SK-MEL-5 melanoma),TGI (UO-31 renal),TGI (A498 renal),TGI (SF-539 CNS),TGI (SR leukemia),TGI (HCT-15 colon),TGI (MOLT-4 leukemia),TGI (K-562 leukemia),GI50 (U251 CNS),GI50 (SW-620 colon),TGI (SW-620 colon),GI50 (SK-MEL-5 melanoma),GI50 (UO-31 renal),GI50 (A498 renal),GI50 (SF-539 CNS),GI50 (SR leukemia),GI50 (HCT-15 colon),GI50 (MOLT-4 leukemia),GI50 (K-562 leukemia)
CC(C)(C)NNC(=O)/C(=C/c1ccc(Oc2ccc(Cl)c(Cl)c2)cc1)NC(=O)c1ccccc1,> 100 µM,> 100 µM,> 100 µM,> 100 µM,> 100 µM,35.9 µM,> 100 µM,> 100 µM,> 100 µM,–,–,–,–,–,–,–,–,–,–,–
Nc1c(C(=O)Nc2ccccc2)sc2nc3c(cc12)CCCCCC3,7.78 µM,9.07 µM,11.9 µM,1.31 µM,0.741 µM,30.9 µM,14 µM,> 50.9 µM,> 41.3 µM,0.395 µM,0.36 µM,50.9 µM,0.393 µM,0.945 µM,0.248 µM,0.231 µM,0.138 µM,0.314 µM,0.422 µM,0.307 µM
CCC1=C(C)/C(=C/c2[nH]c(C)c(C(=O)CCCCC(=O)OC)c2C)N=C1c1ccc[nH]1,33.1 µM,20.8 µM,25.5 µM,59.5 µM,27.1 µM,5.49 µM,66.8 µM,6.92 µM,16.7 µM,12.6 µM,2.18 µM,4.82 µM,7.8 µM,8.78 µM,23.9 µM,13.2 µM,1.3 µM,15.4 µM,0.995 µM,3.47 µM
S=CN1CCCCC1,> 100 µM,> 100 µM,> 100 µM,> 100 µM,> 100 µM,> 100 µM,> 100 µM,> 100 µM,> 100 µM,–,–,> 100 µM,–,–,–,–,–,–,–,–
COC(=O)c1c[nH]cc1CCc1c[nH]cc1C(=O)OC,> 100 µM,–,–,> 100 µM,> 100 µM,> 100 µM,> 100 µM,> 100 µM,> 100 µM,–,–,> 100 µM,–,–,–,–,–,–,–,–
Cc1cc2c(c3c1c1ccccc1n3C)C(=O)C=CC2=O,45.1 µM,> 90.1 µM,36.5 µM,> 100 µM,71 µM,4.56 µM,36.5 µM,12 µM,> 54 µM,–,–,28.7 µM,–,–,–,–,–,–,–,–
CS(=O)(=O)c1ccc(Oc2cc(F)cc(C#N)c2)c2c1[C@H](O)[C@H](F)[C@@H]2F,> 100 µM,> 100 µM,> 100 µM,> 100 µM,> 100 µM,> 100 µM,> 100 µM,> 100 µM,> 100 µM,> 100 µM,> 100 µM,> 100 µM,> 100 µM,> 100 µM,4.86 µM,> 100 µM,> 100 µM,> 100 µM,> 100 µM,> 100 µM
Cc1cc2c(cc1C)NC(=O)C(NC(=O)/C=C/c1ccccc1)C=N2 (stereo unspecified),70.2 µM,> 100 µM,> 100 µM,> 100 µM,> 100 µM,58 µM,40.4 µM,57.7 µM,62.2 µM,–,–,19.6 µM,–,–,–,–,–,–,–,–
Cn1c(C(N)=O)cc2c1-c1nc(Nc3ccccc3)ncc1CCC2,> 100 µM,25.8 µM,14.3 µM,0.955 µM,28 µM,33.1 µM,28.6 µM,50.4 µM,> 100 µM,3.55 µM,6.31 µM,97.7 µM,11.4 µM,1.92 µM,0.204 µM,3.93 µM,4.47 µM,3.4 µM,4.21 µM,4.65 µM
O=[N+]([O-])c1cnc(Sc2ccncn2)c([N+](=O)[O-])c1,> 100 µM,28 µM,2.98 µM,65.3 µM,28.9 µM,> 100 µM,11.2 µM,33.1 µM,29.9 µM,29.4 µM,2.19 µM,4.45 µM,14.3 µM,1.55 µM,24.9 µM,15.3 µM,2.67 µM,2.78 µM,3.24 µM,2.85 µM
O=C(O)c1ccc(S(=O)(=O)c2ccccc2)c([N+](=O)[O-])c1,> 100 µM,> 100 µM,> 100 µM,> 100 µM,> 100 µM,> 100 µM,> 100 µM,> 100 µM,> 100 µM,–,–,> 100 µM,–,–,–,–,–,–,–,–
COC(=O)/C=C/c1cc(O)c2c(c1)C(C(=O)OC)C(c1ccc(O)c(O)c1)O2 (stereo unspecified),46.2 µM and 23.2 µM,5.45 µM and 4.29 µM,23.6 µM and 30.7 µM,16.3 µM and 6.21 µM,0.72 µM and 1.19 µM,> 54.9 µM and 6 µM,68.8 µM and > 100 µM,25.3 µM and 27.8 µM,> 100 µM,0.116 µM,0.108 µM,> 100 µM,< 0.0455 µM and 0.0566 µM,0.855 µM and 0.301 µM,2.85 µM and 0.735 µM,0.255 µM,0.051 µM and 0.0369 µM,0.0991 µM,0.12 µM and 0.0553 µM,< 0.0419 µM and 0.0462 µM
O=C(/C=C/c1ccco1)c1ccc(Nc2nc(Nc3ccc(F)cc3)nc(Nc3ccc(Cl)cc3)n2)cc1,53.8 µM,> 100 µM,> 100 µM,> 65.1 µM,28.3 µM,> 44.5 µM,> 100 µM,> 49.7 µM,> 64.8 µM,19.5 µM,24.5 µM,> 63.3 µM,23.7 µM,> 60.8 µM,2.39 µM,14.2 µM,> 20.7 µM,9.47 µM,> 19.8 µM,24.3 µM
COc1cc2oc(=O)cc(C)c2cc1[N+](=O)[O-],> 100 µM,> 65.1 µM,> 87.6 µM,> 84 µM,57.7 µM,> 100 µM,44.4 µM,60.9 µM,> 100 µM,–,–,> 64.1 µM,–,–,–,–,–,–,–,–
O=C(Nc1ccc(Cl)c([N+](=O)[O-])c1)Nc1nc2ccccc2s1,13.4 µM,4.17 µM,–,8.01 µM,16.9 µM,16.4 µM,15.5 µM,17.1 µM,> 100 µM,3.36 µM,3.38 µM,14.5 µM,1.88 µM,2.91 µM,2.14 µM,3.77 µM,3.94 µM,3.32 µM,3.76 µM,4.15 µM
